Molecules are shown by their SMILES. Calls of active or inactive are those of the source. No cut-off for these calls is given here.

In data set [1] the target is T1, Nuclear receptor subfamily 1 group I member 2 (Homo sapiens, UniProt O75469).
T1 sequence (O75469 whole entry): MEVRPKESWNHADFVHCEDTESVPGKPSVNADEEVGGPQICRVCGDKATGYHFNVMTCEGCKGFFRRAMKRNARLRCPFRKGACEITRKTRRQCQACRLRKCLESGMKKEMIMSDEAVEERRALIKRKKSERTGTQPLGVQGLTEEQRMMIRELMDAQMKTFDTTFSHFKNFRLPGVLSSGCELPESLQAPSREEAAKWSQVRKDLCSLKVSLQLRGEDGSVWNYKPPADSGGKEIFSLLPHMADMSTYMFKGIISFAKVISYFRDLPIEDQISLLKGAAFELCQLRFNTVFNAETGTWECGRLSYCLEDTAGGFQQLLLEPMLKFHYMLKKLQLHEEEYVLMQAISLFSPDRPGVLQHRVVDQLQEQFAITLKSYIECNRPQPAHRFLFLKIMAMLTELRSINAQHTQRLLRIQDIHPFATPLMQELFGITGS
Briefly: Transactivation of human full-length PXR transfected in human HepG2 cells after 24 hrs by luciferase reporter gene assay. The format is cell-based.

In data set [2] the target is T2, C-C chemokine receptor type 1 (Mus musculus, UniProt P51675).
T2 sequence (P51675 whole entry): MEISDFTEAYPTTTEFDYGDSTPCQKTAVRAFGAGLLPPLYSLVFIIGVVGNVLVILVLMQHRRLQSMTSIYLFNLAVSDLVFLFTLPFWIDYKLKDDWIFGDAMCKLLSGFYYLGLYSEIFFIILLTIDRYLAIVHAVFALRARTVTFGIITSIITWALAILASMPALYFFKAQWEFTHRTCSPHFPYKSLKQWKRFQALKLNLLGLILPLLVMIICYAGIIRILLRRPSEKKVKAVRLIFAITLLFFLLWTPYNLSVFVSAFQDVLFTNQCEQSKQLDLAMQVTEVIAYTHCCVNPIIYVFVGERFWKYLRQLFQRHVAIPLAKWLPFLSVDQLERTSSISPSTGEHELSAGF
Briefly: Displacement of [125I]hMIP-1alpha from mouse CCR1.

Data set [3] in a line: Metabolic stability in mouse liver microsomes assessed as compound remaining at 0.5 uM after 60 mins by UV-LC/MS analysis. Format: ADME. As to conditions: read-out: Stability.
Data set [4] can be described thus: Bioavailability in mouse at 5 mg/kg. The format is ADME, organism-based. As to conditions: in vivo.
Data set [5] in a line: Bioavailability in dog at 5 mg/kg. Format: ADME, organism-based, Canis lupus familiaris. As to conditions: in vivo.
Data set [6] can be described thus: Bioavailability in cynomolgus monkey at 5 mg/kg. The format is ADME, organism-based, Macaca fascicularis. To be noted: in vivo.
Data set [7] addresses T3, C-C chemokine receptor type 3 (Homo sapiens) (UniProt P51677).
T3 sequence (whole entry): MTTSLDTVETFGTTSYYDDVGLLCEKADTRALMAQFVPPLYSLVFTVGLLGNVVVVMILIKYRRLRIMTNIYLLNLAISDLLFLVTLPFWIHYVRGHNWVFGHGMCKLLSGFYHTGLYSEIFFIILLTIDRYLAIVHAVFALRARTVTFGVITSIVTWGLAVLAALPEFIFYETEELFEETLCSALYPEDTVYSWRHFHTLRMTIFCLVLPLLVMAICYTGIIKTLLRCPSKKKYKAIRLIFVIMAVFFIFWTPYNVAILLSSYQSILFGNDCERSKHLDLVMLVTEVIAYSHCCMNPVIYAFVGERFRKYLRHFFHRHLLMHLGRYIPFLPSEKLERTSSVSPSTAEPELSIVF
Briefly: Binding affinity to CCR3 receptor (unknown origin).

The target in data set [8] is T4, C-C chemokine receptor type 4 (Homo sapiens) (UniProt P51679).
T4 sequence (whole entry): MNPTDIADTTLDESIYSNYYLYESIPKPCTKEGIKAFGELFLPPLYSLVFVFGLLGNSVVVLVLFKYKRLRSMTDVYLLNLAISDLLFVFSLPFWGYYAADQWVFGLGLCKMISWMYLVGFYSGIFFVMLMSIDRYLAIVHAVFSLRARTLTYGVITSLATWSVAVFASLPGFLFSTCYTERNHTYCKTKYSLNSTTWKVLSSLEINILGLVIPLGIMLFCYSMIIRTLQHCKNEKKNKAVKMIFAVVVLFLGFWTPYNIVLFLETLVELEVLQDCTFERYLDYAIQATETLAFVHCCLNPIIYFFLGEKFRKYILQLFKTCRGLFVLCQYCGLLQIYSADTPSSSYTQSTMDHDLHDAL
Briefly: Binding affinity to CCR4 receptor (unknown origin).

The target in data set [9] is C-C chemokine receptor type 5 (Homo sapiens) (UniProt P51681). Briefly: Binding affinity to CCR5 receptor (unknown origin).
For data set [10], the target named is T5, C-X-C chemokine receptor type 2 (Homo sapiens) (UniProt P25025).
T5 sequence (whole entry): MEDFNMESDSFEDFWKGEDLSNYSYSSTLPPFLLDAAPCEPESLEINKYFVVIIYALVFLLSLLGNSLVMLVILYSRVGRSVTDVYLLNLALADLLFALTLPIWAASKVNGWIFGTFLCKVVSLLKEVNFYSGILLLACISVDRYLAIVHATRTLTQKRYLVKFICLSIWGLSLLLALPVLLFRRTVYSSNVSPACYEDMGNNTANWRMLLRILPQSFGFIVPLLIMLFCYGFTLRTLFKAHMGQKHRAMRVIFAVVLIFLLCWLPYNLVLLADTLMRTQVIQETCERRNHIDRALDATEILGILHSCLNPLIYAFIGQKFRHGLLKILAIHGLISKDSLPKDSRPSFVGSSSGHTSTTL
As to the kind of experiment: Binding affinity to CXCR2 receptor (unknown origin).

The target in data set [11] is T6, C-X-C chemokine receptor type 5 (Homo sapiens) (UniProt P32302).
T6 sequence (whole entry): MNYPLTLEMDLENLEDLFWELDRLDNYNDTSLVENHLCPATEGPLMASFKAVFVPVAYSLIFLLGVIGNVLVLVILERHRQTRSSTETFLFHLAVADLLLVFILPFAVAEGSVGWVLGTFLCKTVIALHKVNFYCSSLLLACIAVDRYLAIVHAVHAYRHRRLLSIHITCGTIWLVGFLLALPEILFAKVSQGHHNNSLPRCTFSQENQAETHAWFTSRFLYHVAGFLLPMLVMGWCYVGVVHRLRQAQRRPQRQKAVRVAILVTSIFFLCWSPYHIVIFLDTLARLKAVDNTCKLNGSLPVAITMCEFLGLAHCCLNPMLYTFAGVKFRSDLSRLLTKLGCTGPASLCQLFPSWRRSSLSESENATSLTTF
Briefly: Binding affinity to CXCR5 receptor (unknown origin).

The species named for data set [12] is Homo sapiens. Briefly: Inhibition of Na+ channel (unknown origin).
Data set [13] is filed under the species Homo sapiens. Briefly: Inhibition of Ca+ channel (unknown origin).

Chain of C-C chemokine receptor type 5 (Homo sapiens) (P51681 whole entry, looked up): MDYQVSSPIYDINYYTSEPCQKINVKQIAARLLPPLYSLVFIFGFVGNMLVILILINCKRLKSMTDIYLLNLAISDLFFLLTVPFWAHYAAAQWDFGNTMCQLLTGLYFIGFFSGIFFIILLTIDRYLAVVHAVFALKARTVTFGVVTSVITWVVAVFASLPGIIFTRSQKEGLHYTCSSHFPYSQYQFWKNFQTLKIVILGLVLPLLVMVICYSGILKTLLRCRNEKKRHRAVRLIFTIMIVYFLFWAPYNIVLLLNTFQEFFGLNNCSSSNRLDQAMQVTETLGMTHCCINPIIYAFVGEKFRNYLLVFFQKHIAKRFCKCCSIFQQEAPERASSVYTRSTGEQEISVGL

In [1], `CC(C)[C@@H](NC(=O)NCC(C)(C)O)C(=O)N1CC[C@](O)(c2ccc(Cl)cc2)C(C)(C)C1` [BMS-817399] registered an EC50 of over 25 µM. The IC50 in data set [2] was over 50 µM. In addition, the remaining at 1 h, 0.5 µM in data set [3] was found to be 86%. Further, the results for the bioavailability in data set [4], in [5] and in [6] were 79%, 100% and 40%, respectively. Further, the outcome in data set [7], in data set [8], in data set [9], in data set [10] and in data set [11] was inactive. In addition, the inhibition entry in the data set filed under Homo sapiens [12] and in the data set filed under Homo sapiens [13] was “inactive” in each case.

The record behind these values is ChEMBL document CHEMBL3351798, “Discovery of the CCR1 antagonist, BMS-817399, for the treatment of rheumatoid arthritis” (J Med Chem, 2014).
